Experimental data published in ChEMBL document CHEMBL1146013, “Amino substituted analogs of 1-phenyl-3-phenylimino-2-indolones with potent galanin Gal3 receptor binding affinity and improved solubility” (Bioorg Med Chem Lett, 2006).
≈ marks a conversion by molar mass, not a printed value.

Assays:
Galanin receptor type 3 = biological target: T1, Galanin receptor type 3 (Homo sapiens, UniProt O60755); assay: Displacement of [125I]galanin from human galanin Gal3 receptor
T1 sequence (O60755 whole entry): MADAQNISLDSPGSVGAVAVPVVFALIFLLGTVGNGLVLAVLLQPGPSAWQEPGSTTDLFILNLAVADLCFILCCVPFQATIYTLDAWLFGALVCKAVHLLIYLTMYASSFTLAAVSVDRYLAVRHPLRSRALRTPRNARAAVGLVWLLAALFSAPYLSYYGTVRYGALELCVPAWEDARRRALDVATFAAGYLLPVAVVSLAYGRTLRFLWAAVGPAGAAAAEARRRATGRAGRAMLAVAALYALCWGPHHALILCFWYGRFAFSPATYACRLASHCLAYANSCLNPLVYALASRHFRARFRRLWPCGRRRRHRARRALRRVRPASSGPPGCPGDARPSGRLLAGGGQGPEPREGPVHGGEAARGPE

[1] = Aqueous solubility at pH 7.4; type: physicochemical
D(1B) dopamine receptor = D(1B) dopamine receptor (Homo sapiens, UniProt P21918); assay: Binding affinity to human dopamine D5 receptor
D(1B) dopamine receptor, sequence (P21918 whole entry): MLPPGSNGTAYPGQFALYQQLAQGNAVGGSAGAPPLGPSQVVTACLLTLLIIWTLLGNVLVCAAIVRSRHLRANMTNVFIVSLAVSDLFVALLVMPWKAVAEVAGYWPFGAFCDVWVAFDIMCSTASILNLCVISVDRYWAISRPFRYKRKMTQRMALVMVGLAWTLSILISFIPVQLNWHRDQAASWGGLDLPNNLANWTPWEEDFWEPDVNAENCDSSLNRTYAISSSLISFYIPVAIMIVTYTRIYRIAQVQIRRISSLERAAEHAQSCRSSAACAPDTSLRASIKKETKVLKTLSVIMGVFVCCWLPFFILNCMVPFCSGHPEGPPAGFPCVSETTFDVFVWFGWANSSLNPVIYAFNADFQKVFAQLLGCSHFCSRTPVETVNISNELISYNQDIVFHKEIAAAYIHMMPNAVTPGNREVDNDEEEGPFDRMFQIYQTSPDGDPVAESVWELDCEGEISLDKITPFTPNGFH

[2] = biological target: T2, Alpha-1A adrenergic receptor (Homo sapiens, UniProt P35348); assay: Binding affinity to human adrenergic alpha-1A receptor
T2 sequence (P35348 whole entry): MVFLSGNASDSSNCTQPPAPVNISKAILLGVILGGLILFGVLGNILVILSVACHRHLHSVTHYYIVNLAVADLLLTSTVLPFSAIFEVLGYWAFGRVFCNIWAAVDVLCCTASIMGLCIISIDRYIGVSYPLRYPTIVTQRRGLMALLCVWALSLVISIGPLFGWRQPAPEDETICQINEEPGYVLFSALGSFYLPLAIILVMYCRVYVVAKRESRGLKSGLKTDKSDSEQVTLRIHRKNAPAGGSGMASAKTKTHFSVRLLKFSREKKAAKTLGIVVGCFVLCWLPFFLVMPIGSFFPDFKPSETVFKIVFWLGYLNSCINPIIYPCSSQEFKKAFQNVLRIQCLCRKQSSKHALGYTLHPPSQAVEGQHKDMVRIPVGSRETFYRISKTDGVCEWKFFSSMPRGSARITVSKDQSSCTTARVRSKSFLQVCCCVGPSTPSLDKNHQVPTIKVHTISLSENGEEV

| Structure (SMILES) | Ki (Galanin receptor type 3) [nM] | solubility [1] [µg/mL] | Ki (D(1B) dopamine receptor) [nM] | Ki [2] [nM] |
| --- | --- | --- | --- | --- |
| CCN(CC)CC(O)COc1cccc(N2C(=O)/C(=N/c3cccc(C(F)(F)F)c3)c3ccccc32)c1 (racemic) | 15 |  |  |  |
| O=C1/C(=N/c2cccc(C(F)(F)F)c2)c2ccccc2N1c1cccc(OCCCN2CCCC2)c1 | 49 |  |  |  |
| O=C1/C(=N/c2cccc(C(F)(F)F)c2)c2ccccc2N1c1ccccc1OCCN1CCCC1 | 790 |  |  |  |
| O=C1/C(=N/c2cccc(C(F)(F)F)c2)c2ccccc2N1c1ccccc1 | 17 | < 1 |  |  |
| CCN(CC)CCCCOc1cccc(N2C(=O)/C(=N/c3cccc(C(F)(F)F)c3)c3ccccc32)c1 | 45 | 5 (≈ 9.81 µM) |  |  |
| CN(C)CCOc1cccc(N2C(=O)/C(=N/c3cccc(C(F)(F)F)c3)c3ccccc32)c1 | 26 |  |  |  |
| CCN(CC)C[C@@H](O)COc1cccc(N2C(=O)/C(=N/c3cccc(C(F)(F)F)c3)c3ccccc32)c1 | 290 |  |  |  |
| CCN(CC)C[C@H](O)COc1cccc(N2C(=O)/C(=N/c3cccc(C(F)(F)F)c3)c3ccccc32)c1 | 27 | 606 (≈ 1180 µM) |  |  |
| O=C1/C(=N/c2cccc(C(F)(F)F)c2)c2ccccc2N1c1cccc(OCCN2CCCCC2)c1 | 8 | 7 (≈ 14.2 µM) |  |  |
| CCN(CC)CCOc1cccc(N2C(=O)/C(=N/c3cccc(C(F)(F)F)c3)c3ccccc32)c1 | 87 |  |  |  |
| CCN(CC)CCCOc1cccc(N2C(=O)/C(=N/c3cccc(C(F)(F)F)c3)c3ccccc32)c1 | 21 | 44 (≈ 88.8 µM) | 411 |  |
| O=C1/C(=N/c2cccc(C(F)(F)F)c2)c2ccccc2N1c1cccc(OCCN2CCCC2)c1 | 5 | 48 (≈ 100 µM) | 939 | 78 |
| CCN(CC)CCOc1ccc(N2C(=O)/C(=N/c3cccc(C(F)(F)F)c3)c3ccccc32)cc1 | 78 |  |  |  |
| CN(C)CCOc1ccc(N2C(=O)/C(=N/c3cccc(C(F)(F)F)c3)c3ccccc32)cc1 | 89 |  |  |  |
| CCN(CC)CCCOc1ccc(N2C(=O)/C(=N/c3cccc(C(F)(F)F)c3)c3ccccc32)cc1 | 34 | 35 (≈ 70.6 µM) |  |  |
| CCN(CC)CCOc1ccccc1N1C(=O)/C(=N/c2cccc(C(F)(F)F)c2)c2ccccc21 | 1000 |  |  |  |
| CCN(CC)COc1cccc(N2C(=O)/C(=N/c3cccc(C(F)(F)F)c3)c3ccccc32)c1 | 38 | 48 (≈ 103 µM) |  |  |
| CN(C)CCCOc1cccc(N2C(=O)/C(=N/c3cccc(C(F)(F)F)c3)c3ccccc32)c1 | 29 |  |  |  |
| CCN(CC)CCCCOc1ccc(N2C(=O)/C(=N/c3cccc(C(F)(F)F)c3)c3ccccc32)cc1 | 70 |  |  |  |
